Results as given in paper PMC9516332 (Frontiers in Oncology, 2022).
Like-named read-outs stand apart in the source and are kept apart here.

Key:
134 cancer cell lines [1] = tested on: 134 cancer cell lines
134 cancer cell lines [2] = assay: Cell viability assay (ATPlite, 72 hours), IC50 on cancer cell line panel

O=C(c1ccc(F)c(F)c1Nc1ccc(I)cc1F)N1CC(O)([C@@H]2CCCCN2)C1 [cobimetinib]
IC50 (134 cancer cell lines [1]): 56 nM | IC50 (134 cancer cell lines [2]; HEC-6, read-out: IC50 in cell proliferation assay, HEC-6 cell line (EGFR p.A289V)): 164 nM | IC50 (134 cancer cell lines [2]; Homo sapiens, 769-P, read-out: IC50 in cell proliferation assay, cell line 769-P): 423 nM | IC50 (134 cancer cell lines [2]; Homo sapiens, 786-0, read-out: IC50 in cell proliferation assay, cell line 786-O): 205 nM | IC50 (134 cancer cell lines [2]; Homo sapiens, A 172, read-out: IC50 in cell proliferation assay, cell line A-172): 218 nM | IC50 (134 cancer cell lines [2]; Homo sapiens, A204, read-out: IC50 in cell proliferation assay, cell line A-204): 900 nM | IC50 (134 cancer cell lines [2]; Homo sapiens, A498, read-out: IC50 in cell proliferation assay, cell line A-498): 3910 nM | IC50 (134 cancer cell lines [2]; Homo sapiens, A549, read-out: IC50 in cell proliferation assay, cell line A-549): 255 nM | IC50 (134 cancer cell lines [2]; Homo sapiens, A704, read-out: IC50 in cell proliferation assay, cell line A-704): > 10000 nM | IC50 (134 cancer cell lines [2]; Homo sapiens, A-375, read-out: IC50 in cell proliferation assay, cell line A-375 (BRAF p.V600E)): 13 nM | IC50 (134 cancer cell lines [2]; Homo sapiens, A-427, read-out: IC50 in cell proliferation assay, cell line A-427): 72 nM | IC50 (134 cancer cell lines [2]; Homo sapiens, ACHN, read-out: IC50 in cell proliferation assay, cell line ACHN): 104 nM | IC50 (134 cancer cell lines [2]; Homo sapiens, AN3-CA, read-out: IC50 in cell proliferation assay, cell line AN3-CA (FGFR2 p.N549K)): 558 nM | IC50 (134 cancer cell lines [2]; Homo sapiens, ASPC1, read-out: IC50 in cell proliferation assay, cell line AsPC-1): 61 nM | IC50 (134 cancer cell lines [2]; Homo sapiens, AU565, read-out: IC50 in cell proliferation assay, cell line AU565 (ERBB2 amplification)): > 10000 nM | IC50 (134 cancer cell lines [2]; Homo sapiens, BT-20, read-out: IC50 in cell proliferation assay, cell line BT-20): > 10000 nM | IC50 (134 cancer cell lines [2]; Homo sapiens, BT-474, read-out: IC50 in cell proliferation assay, cell line BT-474 (ERBB2 amplification)): 5990 nM | IC50 (134 cancer cell lines [2]; Homo sapiens, BT-549, read-out: IC50 in cell proliferation assay, cell line BT-549): 5720 nM | IC50 (134 cancer cell lines [2]; Homo sapiens, BXPC-3, read-out: IC50 in cell proliferation assay, cell line BxPC-3): 10 nM | IC50 (134 cancer cell lines [2]; Homo sapiens, C-33-A, read-out: IC50 in cell proliferation assay, cell line C-33 A): 43 nM | IC50 (134 cancer cell lines [2]; Homo sapiens, CAL-27, read-out: IC50 in cell proliferation assay, cell line CAL-27): 63 nM | IC50 (134 cancer cell lines [2]; Homo sapiens, CCF-STTG1, read-out: IC50 in cell proliferation assay, cell line CCF-STTG1): > 10000 nM | IC50 (134 cancer cell lines [2]; Homo sapiens, CCRF-CEM, read-out: IC50 in cell proliferation assay, cell line CCRF-CEM): 8480 nM | IC50 (134 cancer cell lines [2]; Homo sapiens, COLO 205, read-out: IC50 in cell proliferation assay, cell line COLO 205 (BRAF p.V600E)): 10 nM | IC50 (134 cancer cell lines [2]; Homo sapiens, COLO-829, read-out: IC50 in cell proliferation assay, cell line COLO 829 (BRAF p.V600E)): 28 nM | IC50 (134 cancer cell lines [2]; Homo sapiens, DLD-1, read-out: IC50 in cell proliferation assay, cell line DLD-1): 724 nM | IC50 (134 cancer cell lines [2]; Homo sapiens, DU-4475, read-out: IC50 in cell proliferation assay, cell line DU4475 (BRAF p.V600E)): 17 nM | IC50 (134 cancer cell lines [2]; Homo sapiens, Daoy, read-out: IC50 in cell proliferation assay, cell line Daoy): > 10000 nM | IC50 (134 cancer cell lines [2]; Homo sapiens, DoTc2-4510, read-out: IC50 in cell proliferation assay, cell line DoTc2 4510): 42 nM | IC50 (134 cancer cell lines [2]; Homo sapiens, EOL1, read-out: IC50 in cell proliferation assay, cell line EoL-1 (FIP1L1-PDGFRA)): 87 nM | IC50 (134 cancer cell lines [2]; Homo sapiens, FaDu, read-out: IC50 in cell proliferation assay, cell line FaDu): 146 nM | IC50 (134 cancer cell lines [2]; Homo sapiens, G-361, read-out: IC50 in cell proliferation assay, cell line G-361 (BRAF p.V600E)): 11 nM | IC50 (134 cancer cell lines [2]; Homo sapiens, HCC827, read-out: IC50 in cell proliferation assay, cell line HCC827 (EGFR exon19del)): 321 nM | IC50 (134 cancer cell lines [2]; Homo sapiens, HCC4006, read-out: IC50 in cell proliferation assay, cell line HCC4006 (EGFR exon19del)): 1280 nM | IC50 (134 cancer cell lines [2]; Homo sapiens, HCT-15, read-out: IC50 in cell proliferation assay, cell line HCT 15): 3580 nM | IC50 (134 cancer cell lines [2]; Homo sapiens, HCT-116, read-out: IC50 in cell proliferation assay, cell line HCT 116): 106 nM | IC50 (134 cancer cell lines [2]; Homo sapiens, HEC-1, read-out: IC50 in cell proliferation assay, HEC-1 cell line): 368 nM | IC50 (134 cancer cell lines [2]; Homo sapiens, HEC-1B, read-out: IC50 in cell proliferation assay, HEC-1-B cell line (EGFR p.A864V)): 13 nM | IC50 (134 cancer cell lines [2]; Homo sapiens, HL-60, read-out: IC50 in cell proliferation assay, HL-60 cell line): 19 nM | IC50 (134 cancer cell lines [2]; Homo sapiens, HT, read-out: IC50 in cell proliferation assay, HT cell line): > 10000 nM | IC50 (134 cancer cell lines [2]; Homo sapiens, HT-1080, read-out: IC50 in cell proliferation assay, HT-1080 cell line): 68 nM | IC50 (134 cancer cell lines [2]; Homo sapiens, Hs746T, read-out: IC50 in cell proliferation assay, Hs 746.T cell line (MET exon14skip + amplification)): 530 nM | IC50 (134 cancer cell lines [2]; Homo sapiens, Hs-578T, read-out: IC50 in cell proliferation assay, Hs 578T cell line): 2220 nM | IC50 (134 cancer cell lines [2]; Homo sapiens, HuTu80, read-out: IC50 in cell proliferation assay, HuTu 80 cell line): 319 nM | IC50 (134 cancer cell lines [2]; Homo sapiens, J82, read-out: IC50 in cell proliferation assay, J82 cell line): 85 nM | IC50 (134 cancer cell lines [2]; Homo sapiens, Jurkat E6.1, read-out: IC50 in cell proliferation assay, Jurkat E6.1 cell line): > 10000 nM | IC50 (134 cancer cell lines [2]; Homo sapiens, K562, read-out: IC50 in cell proliferation assay, K-562 cell line): 73 nM | IC50 (134 cancer cell lines [2]; Homo sapiens, KATO III, read-out: IC50 in cell proliferation assay, KATO III cell line (FGFR2 amplification)): 291 nM | IC50 (134 cancer cell lines [2]; Homo sapiens, KG-1, read-out: IC50 in cell proliferation assay, KG-1 cell line (FGFR1OP2-FGFR1)): 26 nM | IC50 (134 cancer cell lines [2]; Homo sapiens, KLE, read-out: IC50 in cell proliferation assay, KLE cell line): > 10000 nM | IC50 (134 cancer cell lines [2]; Homo sapiens, KMS-11, read-out: IC50 in cell proliferation assay, KMS-11 cell line (FGFR3 p.Y373C)): 4120 nM | IC50 (134 cancer cell lines [2]; Homo sapiens, KU812, read-out: IC50 in cell proliferation assay, Ku812 cell line): 64 nM | IC50 (134 cancer cell lines [2]; Homo sapiens, Kasumi 1, read-out: IC50 in cell proliferation assay, Kasumi-1 cell line (KIT p.N822K)): 62 nM | IC50 (134 cancer cell lines [2]; Homo sapiens, LC-2-ad, read-out: IC50 in cell proliferation assay, LC-2/ad cell line (CCDC6-RET)): 1190 nM | IC50 (134 cancer cell lines [2]; Homo sapiens, LNCaP-Clone-FGC, read-out: IC50 in cell proliferation assay, LNCaP clone FGC cell line): 9640 nM | IC50 (134 cancer cell lines [2]; Homo sapiens, LS174T, read-out: IC50 in cell proliferation assay, LS174T cell line): 25 nM | IC50 (134 cancer cell lines [2]; Homo sapiens, LS-411N, read-out: IC50 in cell proliferation assay, LS411N cell line (BRAF p.V600E)): 21 nM | IC50 (134 cancer cell lines [2]; Homo sapiens, LoVo, read-out: IC50 in cell proliferation assay, LoVo cell line): 118 nM | IC50 (134 cancer cell lines [2]; Homo sapiens, MCF7, read-out: IC50 in cell proliferation assay, MCF-7 cell line): 8550 nM | IC50 (134 cancer cell lines [2]; Homo sapiens, MDA-MB-231, read-out: IC50 in cell proliferation assay, MDA-MB-231 cell line): 192 nM | IC50 (134 cancer cell lines [2]; Homo sapiens, MDA-MB-453, read-out: IC50 in cell proliferation assay, MDA-MB-453 cell line): 501 nM | IC50 (134 cancer cell lines [2]; Homo sapiens, MDA-MB-468, read-out: IC50 in cell proliferation assay, MDA-MB-468 cell line): 248 nM | IC50 (134 cancer cell lines [2]; Homo sapiens, MG-63, read-out: IC50 in cell proliferation assay, MG-63 cell line): 421 nM | IC50 (134 cancer cell lines [2]; Homo sapiens, MIA PaCa-2, read-out: IC50 in cell proliferation assay, MIA PaCa-2 cell line): 68 nM | IC50 (134 cancer cell lines [2]; Homo sapiens, MKN-45, read-out: IC50 in cell proliferation assay, MKN45 cell line (MET amplification)): 294 nM | IC50 (134 cancer cell lines [2]; Homo sapiens, MOLM-13, read-out: IC50 in cell proliferation assay, MOLM-13 cell line (FLT3 ITD)): 172 nM | IC50 (134 cancer cell lines [2]; Homo sapiens, MOLT-4, read-out: IC50 in cell proliferation assay, MOLT-4 cell line): > 10000 nM
